Laboratory results as given in patent US9096591B2, “Tetracyclic compounds” (Medivation Technologies, Inc., priority 2007, dated 2015).

Assays:
[1] = test system: adrenergic receptors α1D, α2A, α2B; serotonin receptor 5-HT6; dopamine receptor D2L; experiment: Classification of compounds (Type 1-4) from receptor binding and neurite outgrowth
[2] = target: T1, Serotonin (5-Hydroxytryptamine) 5-HT7 (Homo sapiens, UniProt P34969); experiment: Serotonin 5-HT7 radioligand binding ([3H]LSD); design: Inhibition of ligand binding, Ser. 5-HT7: concentration or dose not given beside the values; details: percent inhibition of specific binding
T1 construct: expressed in transfected cells; host or cells: CHO cells
T1 sequence (P34969 whole entry): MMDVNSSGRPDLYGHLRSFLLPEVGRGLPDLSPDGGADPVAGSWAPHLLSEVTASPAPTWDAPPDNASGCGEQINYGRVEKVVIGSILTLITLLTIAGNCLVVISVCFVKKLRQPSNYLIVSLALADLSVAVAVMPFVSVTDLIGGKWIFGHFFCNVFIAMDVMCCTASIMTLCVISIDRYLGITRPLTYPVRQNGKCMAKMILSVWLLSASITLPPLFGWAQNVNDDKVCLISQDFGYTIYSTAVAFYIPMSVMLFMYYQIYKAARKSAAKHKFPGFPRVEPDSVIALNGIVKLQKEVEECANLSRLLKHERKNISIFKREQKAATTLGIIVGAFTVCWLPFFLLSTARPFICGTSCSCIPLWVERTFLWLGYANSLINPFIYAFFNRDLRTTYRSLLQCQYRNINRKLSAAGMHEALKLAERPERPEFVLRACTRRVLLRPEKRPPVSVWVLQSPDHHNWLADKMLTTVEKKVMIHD
Procedure: Lysergic acid diethylamide (LSD) for 2 hours at 25° C. […] Receptor proteins were filtered and washed, the filters were then counted to determine [^3H]LSD specifically bound. […] Biochemical assay results are presented as the percent inhibition of specific binding in Table 6.

[3] = target: T2, human recombinant dopamine D2L receptor (Homo sapiens, UniProt P14416); experiment: Dopamine D2L radioligand binding ([3H]Spiperone); details: percent inhibition of specific binding
T2 construct: expressed in transfected cells; host or cells: CHO cells
T2 sequence (P14416 whole entry): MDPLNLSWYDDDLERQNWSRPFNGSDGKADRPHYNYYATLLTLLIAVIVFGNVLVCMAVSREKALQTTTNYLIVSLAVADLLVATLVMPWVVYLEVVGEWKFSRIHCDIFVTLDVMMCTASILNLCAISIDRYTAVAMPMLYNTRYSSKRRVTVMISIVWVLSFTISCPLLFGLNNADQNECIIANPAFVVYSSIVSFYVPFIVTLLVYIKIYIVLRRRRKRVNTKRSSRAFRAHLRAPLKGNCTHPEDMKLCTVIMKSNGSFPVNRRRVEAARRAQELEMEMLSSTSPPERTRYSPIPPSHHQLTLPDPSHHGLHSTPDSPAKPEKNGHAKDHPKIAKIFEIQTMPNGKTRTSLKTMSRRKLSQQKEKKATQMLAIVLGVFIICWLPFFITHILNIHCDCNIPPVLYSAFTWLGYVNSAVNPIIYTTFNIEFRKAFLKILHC
Procedure: Non-specific binding was estimated in the presence of 10 μM Haloperidol. Receptor proteins were filtered and washed, the filters were then counted to determine [^3H]Spiperone specifically bound. […] Biochemical assay results are presented as the percent inhibition of specific binding in Table 6.

[4] = target: T3, human recombinant serotonin (5-Hydroxytryptamine) 5-HT2A receptor (Homo sapiens, UniProt P28223); experiment: Serotonin 5-HT2A radioligand binding ([3H]Ketanserin); design: Inhibition of ligand binding, Ser. 5-HT2A: concentration or dose not given beside the values; details: percent inhibition of specific binding
T3 construct: expressed in transfected cells; host or cells: CHO-K1 cells
T3 sequence (P28223 whole entry): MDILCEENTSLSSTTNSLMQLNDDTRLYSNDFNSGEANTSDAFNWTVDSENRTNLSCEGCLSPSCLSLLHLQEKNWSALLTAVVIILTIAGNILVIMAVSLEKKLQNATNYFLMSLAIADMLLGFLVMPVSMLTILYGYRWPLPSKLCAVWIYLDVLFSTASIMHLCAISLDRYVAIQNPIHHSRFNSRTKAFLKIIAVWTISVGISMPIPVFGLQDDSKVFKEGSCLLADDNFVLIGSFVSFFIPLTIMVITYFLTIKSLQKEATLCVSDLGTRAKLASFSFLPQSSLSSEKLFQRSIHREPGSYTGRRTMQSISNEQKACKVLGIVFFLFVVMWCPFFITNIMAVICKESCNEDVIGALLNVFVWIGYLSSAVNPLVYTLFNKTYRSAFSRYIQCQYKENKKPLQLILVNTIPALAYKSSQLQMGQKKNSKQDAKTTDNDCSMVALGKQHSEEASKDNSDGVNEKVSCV
Procedure: Compounds of the invention were incubated with 0.5 nM [^3H]Ketanserin for 60 minutes at 25° C. Non-specific binding was estimated in the presence of 1 μM Mianserin. Receptor proteins were filtered and washed, the filters were then counted to determine [^3H]Ketanserin specifically bound. […] Biochemical assay results are presented as the percent inhibition of specific binding in Table 6.

[5] = target: T4, human recombinant adrenergic α2B receptor (Homo sapiens, UniProt P18089); experiment: Adrenergic α2B radioligand binding ([3H]Rauwolscine); design: Inhibition of ligand binding, Adren. alpha2B: concentration or dose not given beside the values; details: percent inhibition of specific binding
T4 construct: expressed in transfected cells; host or cells: CHO-K1 cells
T4 sequence (P18089 1-450): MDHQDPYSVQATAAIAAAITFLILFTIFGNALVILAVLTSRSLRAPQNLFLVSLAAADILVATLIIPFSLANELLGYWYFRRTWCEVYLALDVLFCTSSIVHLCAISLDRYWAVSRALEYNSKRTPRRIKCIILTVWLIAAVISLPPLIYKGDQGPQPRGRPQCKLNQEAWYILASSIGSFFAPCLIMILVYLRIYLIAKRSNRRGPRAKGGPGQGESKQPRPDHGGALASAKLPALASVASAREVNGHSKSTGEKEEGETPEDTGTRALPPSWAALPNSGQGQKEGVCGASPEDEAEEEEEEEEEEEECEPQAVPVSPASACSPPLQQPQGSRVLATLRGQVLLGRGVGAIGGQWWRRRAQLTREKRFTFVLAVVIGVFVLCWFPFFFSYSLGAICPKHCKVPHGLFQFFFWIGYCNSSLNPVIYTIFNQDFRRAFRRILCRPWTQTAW
Summary of the method: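 Membranes from CHO-K1 cells expressing the receptor, in 50 mM Tris-HCl pH 7.4 with 12.5 mM MgCl2, 1 mM EDTA, 0.2% BSA, incubated with compounds and 2.5 nM [3H]Rauwolscine for 60 minutes at 25 °C.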

C57BL/6 mice = details: 0.01-0.1 mg/kg; previously shown; cited from earlier work

SMILES | compound type (classification by receptor binding profile and neurite outgrowth) [1] | Inhibition of ligand binding, Ser. 5-HT7 [2] [%] | Inhibition of ligand binding, Dop. D2L [3] [%] | Inhibition of ligand binding, Ser. 5-HT2A [4] [%] | Inhibition of ligand binding, Adren. alpha2B [5] [%] | effect on memory in the recognition test of a known object in a new location (C57BL/6 mice)
CN1CCc2c(c3cc(Cl)ccc3n2CCc2ccc(C(F)(F)F)nc2)C1 [Compound 250] | Type one | 93 | 21 | 101 | 108 | –
Cc1ccc2c(c1)c1c(n2CCc2ccc(C)nc2)CCN(C)C1 [Dimebon, dimebon, reference compound] | – | – | 41 | 82 | 112 | dose-dependent activating effect on memory
